Laboratory results published in US8748451B2, “HDAC inhibitors and therapeutic methods of using same” (The Board of Trustees of the University of Illinois, priority 2009, dated 2014).
Like-named read-outs stand apart in the source and are kept apart here. Each block holds one molecule with its values, some of them ahead of it.

Columns and labels:
primary cortical neurons = test: HCA oxidative stress neuroprotection assay (MTT viability)
mice = test: Visible platform test; format: in vivo; conditions: injected twice a day for two days
murine Treg = test: Murine Treg suppression; format: cell-based
Aβ-infused mice = test: Contextual fear conditioning after Aβ42 infusion; format: in vivo
Experimental: In this test, mice were infused with Aβ42 via cannulas implanted into dorsal hippocampus 15 minutes prior to training. […] Fear learning was assessed 24 hours later.

[1] = tested on: collagen-induced arthritis model in DBA1/J mice; test: Collagen-induced arthritis model; format: in vivo; conditions: 50 and 100 mg/kg IP
Excerpt: In this test, DBA1/J mice (male, 7-8 weeks) were used, with 8 animals per group. Systemic arthritis was induced with bovine collagen type II and CFA, plus an IFA booster injection on day 21.
The results are summarized in FIG. 3, containing graphs of Average Arthritic Score vs. Days of Treatment.

Human HDAC6 = Human HDAC6 (Homo sapiens (Human), UniProt Q9UBN7); test: HDAC6 inhibition assay (fluorogenic p53 peptide substrate); format: biochemical; conditions: for IC50: mean of two experiments (TSA: 9), 10-dose, 3-fold serial dilution from 30 μM, read-out: HDAC6 IC50 (μM) ± SD
Human HDAC1 = Human HDAC1 (Homo sapiens (Human), UniProt Q13547); test: HDAC1 inhibition assay (fluorogenic p53 peptide substrate); format: biochemical; conditions: read-out: HDAC1 IC50 (μM) ± SD
mice with colitis = test: Colitis in mice; format: in vivo; conditions: treatment begun once colitis had developed
Excerpt: Studies of autoimmunity also are undertaken. In this case, interruption of existing disease is especially important and HDAC6 targeting can be efficacious without any requirement for additional therapy (in contrast to a need for brief low-dose RPM in the very aggressive, fully MHC-mismatched transplant models). […] These studies are extended by assessing whether deletion of HDAC6 in Tregs (Foxp3/Cre) vs. T cells (CD4=Cre) vs. DC (CD11c-Cre) differentially affect the development and severity of colitis. Similarly, control of colitis is assessed by inducing HDAC6 deletion at varying intervals after the onset of colitis with tamoxifen-regulated Cre.

HDAC7 = HDAC7 (Homo sapiens (Human), UniProt Q8WUI4); test: HDAC7 inhibition assay
HDAC5 = HDAC5 (Homo sapiens (Human), UniProt Q9UQL6); test: biochemical; conditions: mean of two experiments; read-out: HDAC5 IC50 (μM) ± SD
HDAC2 = HDAC2 (Homo sapiens (Human), UniProt Q92769); test: biochemical
[2] = mean of two experiments (TSA: 9), 10-dose, 3-fold serial dilution from 30 μM

Sequence of Human HDAC6 (Q9UBN7 whole entry): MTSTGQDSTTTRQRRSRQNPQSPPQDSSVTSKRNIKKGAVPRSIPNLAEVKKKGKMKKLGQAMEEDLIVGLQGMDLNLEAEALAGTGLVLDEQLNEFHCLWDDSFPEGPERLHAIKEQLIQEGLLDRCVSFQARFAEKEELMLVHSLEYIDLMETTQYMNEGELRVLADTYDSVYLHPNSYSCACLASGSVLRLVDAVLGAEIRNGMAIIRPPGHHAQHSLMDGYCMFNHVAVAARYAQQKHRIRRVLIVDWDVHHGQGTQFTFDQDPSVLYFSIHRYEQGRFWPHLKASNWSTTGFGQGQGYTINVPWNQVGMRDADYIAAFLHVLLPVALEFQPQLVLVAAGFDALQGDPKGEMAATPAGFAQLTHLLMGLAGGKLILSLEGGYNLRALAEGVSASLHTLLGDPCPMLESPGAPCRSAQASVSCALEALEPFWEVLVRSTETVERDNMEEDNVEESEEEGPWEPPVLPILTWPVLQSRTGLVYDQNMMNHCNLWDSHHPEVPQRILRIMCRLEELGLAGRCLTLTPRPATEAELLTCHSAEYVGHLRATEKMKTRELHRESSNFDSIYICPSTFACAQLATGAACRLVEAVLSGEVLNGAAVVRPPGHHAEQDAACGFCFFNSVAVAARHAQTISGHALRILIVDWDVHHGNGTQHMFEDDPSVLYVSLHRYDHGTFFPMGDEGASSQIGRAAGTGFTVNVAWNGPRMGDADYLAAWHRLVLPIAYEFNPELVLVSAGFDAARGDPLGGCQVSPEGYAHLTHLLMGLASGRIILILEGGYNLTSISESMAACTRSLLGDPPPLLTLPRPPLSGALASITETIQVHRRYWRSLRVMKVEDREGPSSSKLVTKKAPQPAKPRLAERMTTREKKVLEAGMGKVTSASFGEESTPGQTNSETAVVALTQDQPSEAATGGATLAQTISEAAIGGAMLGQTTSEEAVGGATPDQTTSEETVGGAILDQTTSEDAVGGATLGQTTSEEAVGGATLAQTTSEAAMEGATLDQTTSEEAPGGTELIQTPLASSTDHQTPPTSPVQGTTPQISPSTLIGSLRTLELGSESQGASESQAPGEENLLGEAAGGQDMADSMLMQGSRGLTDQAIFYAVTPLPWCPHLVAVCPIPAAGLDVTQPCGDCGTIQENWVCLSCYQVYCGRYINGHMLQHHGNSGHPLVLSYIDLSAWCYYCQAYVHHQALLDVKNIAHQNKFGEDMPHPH
Sequence of Human HDAC1 (Q13547 whole entry): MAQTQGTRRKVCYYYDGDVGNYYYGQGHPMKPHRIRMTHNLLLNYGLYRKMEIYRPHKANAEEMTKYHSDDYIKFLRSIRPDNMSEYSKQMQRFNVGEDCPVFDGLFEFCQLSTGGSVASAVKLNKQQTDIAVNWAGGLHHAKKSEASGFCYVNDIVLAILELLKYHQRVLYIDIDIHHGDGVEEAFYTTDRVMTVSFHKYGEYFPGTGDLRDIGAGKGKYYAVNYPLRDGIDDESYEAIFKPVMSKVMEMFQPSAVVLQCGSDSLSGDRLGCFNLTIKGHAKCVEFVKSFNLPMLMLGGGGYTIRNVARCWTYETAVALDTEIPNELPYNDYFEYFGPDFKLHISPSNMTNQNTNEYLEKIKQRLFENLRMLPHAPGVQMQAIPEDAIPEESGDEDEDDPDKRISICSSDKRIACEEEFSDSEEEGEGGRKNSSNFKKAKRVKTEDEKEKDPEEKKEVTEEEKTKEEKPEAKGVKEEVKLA
Sequence of HDAC2 (Q92769 whole entry): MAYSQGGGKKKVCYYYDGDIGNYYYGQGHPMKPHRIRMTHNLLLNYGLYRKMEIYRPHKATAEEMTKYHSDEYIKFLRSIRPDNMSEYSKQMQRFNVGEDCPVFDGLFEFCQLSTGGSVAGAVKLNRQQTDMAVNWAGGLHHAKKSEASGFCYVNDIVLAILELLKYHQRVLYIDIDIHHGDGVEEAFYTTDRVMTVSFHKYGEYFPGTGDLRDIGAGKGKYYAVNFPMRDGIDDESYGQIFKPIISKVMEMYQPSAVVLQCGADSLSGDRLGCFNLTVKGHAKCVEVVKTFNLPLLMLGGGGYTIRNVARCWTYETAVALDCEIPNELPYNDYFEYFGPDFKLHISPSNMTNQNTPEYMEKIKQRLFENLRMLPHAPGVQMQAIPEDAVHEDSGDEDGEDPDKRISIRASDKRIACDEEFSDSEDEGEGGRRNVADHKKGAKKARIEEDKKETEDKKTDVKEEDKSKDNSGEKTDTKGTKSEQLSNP
Sequence of HDAC7 (Q8WUI4 whole entry): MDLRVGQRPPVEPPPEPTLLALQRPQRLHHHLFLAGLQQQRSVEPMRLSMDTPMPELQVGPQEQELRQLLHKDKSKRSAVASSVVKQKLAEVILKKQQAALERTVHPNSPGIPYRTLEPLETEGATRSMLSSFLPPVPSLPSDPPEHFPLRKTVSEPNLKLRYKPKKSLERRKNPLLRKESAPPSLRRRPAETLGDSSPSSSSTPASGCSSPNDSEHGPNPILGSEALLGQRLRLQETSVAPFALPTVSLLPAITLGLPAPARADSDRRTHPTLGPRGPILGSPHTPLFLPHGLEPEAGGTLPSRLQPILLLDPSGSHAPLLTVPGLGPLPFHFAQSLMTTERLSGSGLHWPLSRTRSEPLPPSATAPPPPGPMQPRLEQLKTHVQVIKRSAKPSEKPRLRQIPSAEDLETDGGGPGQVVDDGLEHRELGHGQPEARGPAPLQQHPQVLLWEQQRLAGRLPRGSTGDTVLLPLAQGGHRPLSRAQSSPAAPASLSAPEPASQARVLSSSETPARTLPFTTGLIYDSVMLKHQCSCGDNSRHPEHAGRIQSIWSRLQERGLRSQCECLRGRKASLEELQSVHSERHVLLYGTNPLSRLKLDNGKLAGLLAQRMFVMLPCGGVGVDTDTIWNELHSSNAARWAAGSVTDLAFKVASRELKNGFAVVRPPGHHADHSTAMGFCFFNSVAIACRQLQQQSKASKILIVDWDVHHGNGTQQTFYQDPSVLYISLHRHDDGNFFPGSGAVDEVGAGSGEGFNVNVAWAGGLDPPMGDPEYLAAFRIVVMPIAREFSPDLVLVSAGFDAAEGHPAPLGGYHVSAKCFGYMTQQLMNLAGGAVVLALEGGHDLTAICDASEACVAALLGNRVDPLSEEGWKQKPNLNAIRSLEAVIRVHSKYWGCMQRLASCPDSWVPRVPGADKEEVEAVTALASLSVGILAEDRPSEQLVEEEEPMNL
Sequence of HDAC5 (Q9UQL6 whole entry): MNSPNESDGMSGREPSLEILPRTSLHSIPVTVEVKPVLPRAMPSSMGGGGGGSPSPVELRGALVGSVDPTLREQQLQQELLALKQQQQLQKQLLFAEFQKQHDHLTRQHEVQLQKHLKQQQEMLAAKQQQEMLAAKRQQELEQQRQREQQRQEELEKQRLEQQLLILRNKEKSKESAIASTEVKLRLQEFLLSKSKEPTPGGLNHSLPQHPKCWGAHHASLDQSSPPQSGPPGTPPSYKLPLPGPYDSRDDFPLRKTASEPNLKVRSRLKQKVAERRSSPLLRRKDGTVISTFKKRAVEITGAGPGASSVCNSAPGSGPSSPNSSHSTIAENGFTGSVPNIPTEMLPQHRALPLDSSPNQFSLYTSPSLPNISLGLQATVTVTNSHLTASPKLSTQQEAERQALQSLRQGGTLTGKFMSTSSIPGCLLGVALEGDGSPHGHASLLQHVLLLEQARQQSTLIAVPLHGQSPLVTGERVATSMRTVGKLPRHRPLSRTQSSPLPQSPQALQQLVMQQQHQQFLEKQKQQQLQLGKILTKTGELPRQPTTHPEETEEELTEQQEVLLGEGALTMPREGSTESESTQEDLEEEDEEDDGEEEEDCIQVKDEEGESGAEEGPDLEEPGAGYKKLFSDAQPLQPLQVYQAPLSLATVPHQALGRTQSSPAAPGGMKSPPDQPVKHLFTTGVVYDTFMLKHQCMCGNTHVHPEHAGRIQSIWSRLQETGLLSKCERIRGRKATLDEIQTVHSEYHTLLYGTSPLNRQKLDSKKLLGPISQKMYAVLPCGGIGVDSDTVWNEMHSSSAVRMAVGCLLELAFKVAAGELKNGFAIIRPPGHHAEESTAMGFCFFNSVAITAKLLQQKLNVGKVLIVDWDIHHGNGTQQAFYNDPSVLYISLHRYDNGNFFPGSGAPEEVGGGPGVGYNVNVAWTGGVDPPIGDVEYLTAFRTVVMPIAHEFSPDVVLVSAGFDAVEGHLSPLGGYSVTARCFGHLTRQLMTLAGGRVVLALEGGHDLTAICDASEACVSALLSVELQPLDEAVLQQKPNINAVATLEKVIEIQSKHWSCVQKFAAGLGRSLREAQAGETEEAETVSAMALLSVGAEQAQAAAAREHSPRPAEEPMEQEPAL

SMILES: CN1CCc2c(c3ccccc3n2Cc2ccc(C(=O)NO)cc2)C1 [Compound 6, N-Hydroxy-4-(2-methyl-1,2,3,4-tetrahydro-pyrido[4,3-b]indol-5-ylmethyl)benzamide]
toxicity to neurons when tested alone (primary cortical neurons; alone (no HCA), all concentrations shown): no toxicity
concentration at which dose-dependent protection against HCA-induced neuronal cell death starts (primary cortical neurons; with HCA 5 mM, 24 h): 5 µM
effects on motor, sensorial, or motivational skills (mice): no effects
concentration enhancing murine Treg suppression (murine Treg): greater than 100 μM
signs of overt toxicity (food and liquid intake, weight loss, locomotion, exploratory behavior) (Aβ-infused mice; during the memory experiments): no signs of overt toxicity
freezing response (contextual fear conditioning) (Aβ-infused mice; vehicle-infused mice, 25 mg/kg ip): no effect
body weight [1]: No loss of body weight

SMILES: CN1CCc2c(n(Cc3ccc(C(=O)NO)cc3)c3ccccc23)C1 [Compound 7, N-Hydroxy-4-(2-methyl-1,2,3,4-tetrahydro-b-carbolin-9-ylmethyl)benzamide]
selectivity for HDAC6 against HDAC1 (Human HDAC6; HDAC1 IC50/HDAC6 IC50): 3700 fold

IC50 (Human HDAC1; [2]): > 30 µM
IC50 (Human HDAC6): 1.59 ± 0.08 µM
SMILES: O=C(CCn1c2ccccc2c2ccccc21)NO [Compound 8, 3-Carbazol-9-yl-N-hydroxy-propionamide]

SMILES: O=C(CCCCn1c2ccccc2c2ccccc21)NO [Compound 9, 5-Carbazol-9-yl-pentanoic acid hydroxyamide]
IC50 (Human HDAC1): 12.8 ± 0.7 µM
IC50 (Human HDAC6): 2.63 ± 0.04 µM

SMILES: O=C(CCCCCCn1c2ccccc2c2ccccc21)NO [Compound 10, 7-Carbazol-9-ylheptanoic acid hydroxyamide]
IC50 (Human HDAC1): 0.204 ± 0.087 µM
IC50 (Human HDAC6): 0.006 ± 0.002 µM

IC50 (Human HDAC1; [2]): > 30 µM
IC50 (Human HDAC6): > 30 µM
SMILES: O=C(NO)n1c2ccccc2c2ccccc21 [Compound 13, Carbazole-9-carboxylic acid hydroxyamide]

SMILES: O=C(CCCCCCC(=O)Nc1ccc([C@H]2O[C@@H](CSc3nc(-c4ccccc4)c(-c4ccccc4)o3)C[C@@H](c3ccc(CO)cc3)O2)cc1)NO [Tubacin]
rescue of mice with established colitis (mice with colitis): able to rescue mice
IC50 (HDAC7): 9.7 ± 1.8 µM
IC50 (HDAC5): 3.35 ± 0.03 µM
IC50 (HDAC2): 6.27 ± 0.29 µM
